Measured values as given in ChEMBL document CHEMBL3217447, “Biosynthetic gene cluster and antimicrobial activity of the elfamycin antibiotic factumycin” (2012).
≈ marks a conversion by molar mass, not a printed value.

Assays:
Type in all cases: functional
Staphylococcus aureus [1] = test: Antibacterial activity against Staphylococcus aureus CMRSA6 assessed as growth inhibition
Pseudomonas aeruginosa [2] = test: Antibacterial activity against Pseudomonas aeruginosa PAO1 by microdilution checkerboard method in presence of tetracycline
Acinetobacter baumannii [3] = test: Antibacterial activity against Acinetobacter baumannii ATCC 17978 assessed as growth inhibition
Staphylococcus aureus [4] = test: Antibacterial activity against Staphylococcus aureus ATCC 29213 assessed as growth inhibition
Staphylococcus aureus [5] = test: Antibacterial activity against Staphylococcus aureus ATCC 29213 by microdilution checkerboard method in presence of tetracycline
Klebsiella pneumoniae [6] = test: Antibacterial activity against Klebsiella pneumoniae GDW915 assessed as growth inhibition
Pseudomonas aeruginosa [7] = test: Antibacterial activity against Pseudomonas aeruginosa GDW787 assessed as growth inhibition
Escherichia coli [8] = test: Antibacterial activity against Escherichia coli […] by microdilution checkerboard method in presence of tetracycline
Escherichia coli [9] = test: Antibacterial activity against Escherichia coli GDW916 assessed as growth inhibition
Acinetobacter baumannii [10] = test: Antibacterial activity against Acinetobacter baumannii mrH4 by microdilution checkerboard method in presence of tetracycline
Acinetobacter baumannii [11] = test: Antibacterial activity against Acinetobacter baumannii ATCC 17978 by microdilution checkerboard method in presence of tetracycline
Pseudomonas aeruginosa [12] = test: Antibacterial activity against Pseudomonas aeruginosa GDW789 assessed as growth inhibition
Acinetobacter baumannii [13] = test: Antibacterial activity against Acinetobacter baumannii B00919434 assessed as growth inhibition
Enterococcus faecalis [14] = test: Antibacterial activity against Enterococcus faecalis ATCC 29212 assessed as growth inhibition
Klebsiella pneumoniae [15] = test: Antibacterial activity against Klebsiella pneumoniae GDW917 assessed as growth inhibition
Acinetobacter baumannii [16] = test: Antibacterial activity against Acinetobacter baumannii mrH4 assessed as growth inhibition
Escherichia coli [17] = test: Antibacterial activity against Escherichia coli GDW914 assessed as growth inhibition
Staphylococcus aureus [18] = test: Antibacterial activity against Staphylococcus aureus CMRSA7 assessed as growth inhibition
Pseudomonas aeruginosa [19] = test: Antibacterial activity against Pseudomonas aeruginosa PAO1 assessed as growth inhibition
Pseudomonas aeruginosa [20] = test: Antibacterial activity against Pseudomonas aeruginosa GDW788 assessed as growth inhibition
Acinetobacter baumannii [21] = test: Antibacterial activity against Acinetobacter baumannii mrH5 assessed as growth inhibition
Acinetobacter baumannii [22] = test: Antibacterial activity against Acinetobacter baumannii GDW786 assessed as growth inhibition
Pseudomonas aeruginosa [23] = test: Antibacterial activity against Pseudomonas aeruginosa GDW790 assessed as growth inhibition
Escherichia coli [24] = test: Antibacterial activity against Escherichia coli ATCC 25922 assessed as growth inhibition
Enterococcus faecalis [25] = test: Antibacterial activity against Enterococcus faecalis ATCC 51299 assessed as growth inhibition
Acinetobacter baumannii [26] = test: Antibacterial activity against Acinetobacter baumannii B00636584 assessed as growth inhibition
Staphylococcus aureus [27] = test: Antibacterial activity against Staphylococcus aureus CMRSA5 assessed as growth inhibition
Acinetobacter baumannii [28] = test: Antibacterial activity against Acinetobacter baumannii mrH3 assessed as growth inhibition
Enterococcus faecalis [29] = test: Antibacterial activity against Enterococcus faecalis ATCC 29212 by microdilution checkerboard method in presence of tetracycline
Acinetobacter baumannii [30] = test: Antibacterial activity against Acinetobacter baumannii GDW787 assessed as growth inhibition
Escherichia coli [31] = test: Antibacterial activity against Escherichia coli GDW918 assessed as growth inhibition
Klebsiella pneumoniae [32] = test: Antibacterial activity against Klebsiella pneumoniae by microdilution checkerboard method in presence of tetracycline

## C/C=C\C=C\[C@@H]1O[C@](O)([C@H](CC)C(=O)NC/C=C/C=C(\C)[C@@H](OC)[C@@H](C)C(O)[C@@H](O)/C=C/C=C/C=C/C=C(\C)C(=O)c2c(O)ccn(C)c2=O)C[C@H](O)C1(C)C (some centres not stated)
Staphylococcus aureus [1]
  MIC: > 128 µg/mL
Pseudomonas aeruginosa [2]
  fractional inhibitory concentration index (FICI): 2
Acinetobacter baumannii [3]
  MIC: 32 µg/mL (≈ 41.1 µM)
Staphylococcus aureus [4]
  MIC: 32 µg/mL (≈ 41.1 µM)
Staphylococcus aureus [5]
  fractional inhibitory concentration index (FICI): 2
Klebsiella pneumoniae [6]
  MIC: > 128 µg/mL
Pseudomonas aeruginosa [7]
  MIC: 128 µg/mL (≈ 164 µM)
Escherichia coli [8]
  fractional inhibitory concentration index (FICI): 2
Escherichia coli [9]
  MIC: 128 µg/mL (≈ 164 µM)
Acinetobacter baumannii [10]
  fractional inhibitory concentration index (FICI): 0.25
Acinetobacter baumannii [11]
  fractional inhibitory concentration index (FICI): 2
Pseudomonas aeruginosa [12]
  MIC: > 128 µg/mL
Acinetobacter baumannii [13]
  MIC: 8 µg/mL (≈ 10.3 µM)
Enterococcus faecalis [14]
  MIC: 16 µg/mL (≈ 20.5 µM)
Klebsiella pneumoniae [15]
  MIC: 128 µg/mL (≈ 164 µM)
Acinetobacter baumannii [16]
  MIC: 8 µg/mL (≈ 10.3 µM)
Escherichia coli [17]
  MIC: 128 µg/mL (≈ 164 µM)
Staphylococcus aureus [18]
  MIC: > 128 µg/mL
Pseudomonas aeruginosa [19]
  MIC: 128 µg/mL (≈ 164 µM)
Pseudomonas aeruginosa [20]
  MIC: 128 µg/mL (≈ 164 µM)
Acinetobacter baumannii [21]
  MIC: 8 µg/mL (≈ 10.3 µM)
Acinetobacter baumannii [22]
  MIC: 128 µg/mL (≈ 164 µM)
Pseudomonas aeruginosa [23]
  MIC: 128 µg/mL (≈ 164 µM)
Escherichia coli [24]
  MIC: 64 µg/mL (≈ 82.2 µM)
Enterococcus faecalis [25]
  MIC: 64 µg/mL (≈ 82.2 µM)
Acinetobacter baumannii [26]
  MIC: 16 µg/mL (≈ 20.5 µM)
Staphylococcus aureus [27]
  MIC: > 128 µg/mL
Acinetobacter baumannii [28]
  MIC: 16 µg/mL (≈ 20.5 µM)
Enterococcus faecalis [29]
  fractional inhibitory concentration index (FICI): 0.375
Acinetobacter baumannii [30]
  MIC: 128 µg/mL (≈ 164 µM)
Escherichia coli [31]
  MIC: 128 µg/mL (≈ 164 µM)
Klebsiella pneumoniae [32]
  fractional inhibitory concentration index (FICI): 0.5
